Patent US10202652B2, “Methods and compositions of predicting activity of retinoid X receptor modulator” (Denovo Biopharma (Hangzhou) Ltd. Co., priority 2011, dated 2019)

Tests used:
[1] = tested on: non small cell lung cancer; conditions: addition of bexarotene to chemotherapy, first-line, advanced non small cell lung cancer, both phase III trials; cited from earlier work
[2] = tested on: LCP1; assay: RNA microarray of LCP1 expression in paclitaxel-resistant MDA-MB-231 (MDA-PR) cells; assay type: cell-based, human; conditions: for effect on LCP1 expression (in words): paclitaxel alone, or bexarotene together with paclitaxel
Experimental: (§1) The human breast cancer cell line MDA-MB-231 was obtained from the American Type Culture Collection (Manassas, Va., USA), and MDA-MB-231 cells were routinely cultured in RPMI-1640 supplemented with 10% fetal bovine serum and 2 mM glutamine in 5% CO2. Bexarotene was synthesized at Ligand Pharmaceuticals Inc. (San Diego, Calif., USA), and paclitaxel was purchased from Sigma Chemicals (St. Louis, Mo., USA). The protocol for establishment of paclitaxel-resistant MDA-MB-231 cells and resensitization to paclitaxel by bexarotene treatment was described previously (5). Briefly, MDA-MB-231 cells were exposed to regimens on a 10-day cycle: a 3-day treatment with 30 nM paclitaxel followed by a 7-day exposure to control medium. […] These MDA-PR cells were then treated with the combination of 30 nM paclitaxel (3 days on and 7 days off) in the absence or presence of 1 μM Targretin (10 days on) in a new 10-day cycle for 3 months.

[3] = tested on: non small cell lung cancer; assay: Kaplan-Meier survival analysis of bexarotene-treated patients in the SPIRIT I and II phase III trials; assay type: in vivo, human (patients); conditions: bexarotene plus chemotherapy, control arm 284 days
Experimental: Bexarotene (also called Targretin, LGD1069) is a selective modulator of retinoid X receptors (RXRs) approved for treating refractory advanced-stage cutaneous T-cell lymphoma (1, 2). […] Consequently, two large phase III trials (SPIRIT I and SPIRIT II) were conducted to evaluate the efficacy and safety of standard chemotherapy agents with or without bexarotene as a first-line therapy in treating advanced non small cell lung cancer. […] A known side-effect of retinoid therapy is the elevation of serum lipids, and the majority of the bexarotene treated patients in the two SPIRIT trials developed hypertriglyceridemia, as expected. […] This intriguing correlation between survival and triglyceride level induced by bexarotene observed in both SPIRIT trials is illustrated in FIG. 1A. […] These findings prompted the search for biomarkers which can predict bexarotene sensitivity and identify a subgroup of non small cell lung cancer patients whose survival could be prolonged by bexarotene treatment.
FIG. 1. Sub-population analysis and study design. […] Kaplan-Meier survival estimates in patients gave median survivals of 170 days, 263 days, and 371 days for these three groups, respectively. […] B. Overview of genome-wide association study design. In Stage I discovery phase, 150 samples (74 cases and 76 controls) were genotyped using the Affymetrix GeneChip 500K Mapping Array Set (Nsp array+Sty array) containing 500,000 SNPs following the Affymetrix standard protocol. 255 SNPs were then selected for stage II study. In Stage II, 400 samples were individually genotyped using the 255 Sequenom iPLEX SNP assays, including 147 samples (minus one case and two controls) used in the Stage I for the Verification group and 253 new samples for the Replication group. In the Replication group, 129 samples were included from the patients with middle level of triglyceride percentile (HTG Mid).

[4] = tested on: MDA-PR cells; assay: Growth and resensitization of paclitaxel-resistant MDA-MB-231 cells; assay type: cell-based, human; conditions: 30 nM paclitaxel (3 days on, 7 days off) in absence or presence of 1 μM Targretin (10 days on), 3 months
Experimental: as §1

[5] = bexarotene-treated patients, two SPIRIT trials; cited from earlier work

Row | Structure (SMILES) | overall survival in the intent-to-treat population [1] | LCP1 expression up-regulation compared to MDA-PR cells ([2]; 30 nM paclitaxel/1 μM bexarotene for 3 months, p-value=6.86×10^−6) | effect on LCP1 expression (in words) [2] | median survival (Kaplan-Meier estimate) ([3]; 'HTG Hi' group: 67% to maximum triglyceride) | median survival (Kaplan-Meier estimate) ([3]; 'HTG Lo' group: triglyceride up to 33% of maximum level) | median survival (Kaplan-Meier estimate) ([3]; 'HTG Mid' group: middle third (33% to 67%)) | effect on growth / paclitaxel sensitivity of MDA-PR cells [4] | patients who developed NCI grade 3 or higher hypertriglyceridemia [5]
1 | C=C(c1ccc(C(=O)O)cc1)c1cc2c(cc1C)C(C)(C)CCC2(C)C [bexarotene] | did not improve overall survival | 3.8 fold | significantly up-regulated | 371 days | 170 days | 263 days | re-sensitized to paclitaxel | 30-40%
2 | CC(=O)O[C@H]1C(=O)[C@@]2(C)[C@H]([C@H](OC(=O)c3ccccc3)[C@]3(O)C[C@H](OC(=O)[C@H](O)[C@@H](NC(=O)c4ccccc4)c4ccccc4)C(C)=C1C3(C)C)[C@]1(OC(C)=O)CO[C@@H]1C[C@@H]2O [paclitaxel] | – | – | no effect | – | – | – | no effect | –
